Data as given in US6867206B1, “6-carboxyphenyldihydropyridazinone derivatives and use thereof” (Bayer Aktiengesellschaft, priority 1999, dated 2005).

With O=C1CCC(c2ccc(C(=O)NCCc3ccccc3F)cc2)=NN1 [Example 43] the melting point was 189 to 190 °C.
Work on O=C1CCC(c2ccc(C(=O)OCC3CCC3)cc2)=NN1 [Example 40] yielded a melting point of 155 to 156 °C.
CC1CC(=O)NN=C1c1ccc(C(=O)Nc2ccc3ccccc3c2)cc1 (stereo not shown) [Example 55] showed a melting point of 271 to 272 °C.
Compound O=C1CCC(c2ccc(C(=O)OCC3CC3)cc2)=NN1 [Example 34] has a melting point of 158 to 159 °C.
In the case of O=C1CCC(c2ccc(C(=O)OCc3ccccc3)cc2)=NN1 [Example 41], the melting point is reported as 156 to 157 °C.
For NC(=O)c1ccsc1NC(=O)c1ccc(C2=NNC(=O)CC2)cc1 [Example 47], the melting point was greater than 250 °C.
In the case of CC(NC(=O)c1ccc(C2=NNC(=O)CC2)cc1)c1ccccc1 (stereo not shown) [Example 23], the melting point is reported as 242 to 243 °C.
In the case of CCOC(=O)c1ccc(C2=NNC(=O)CC2)cc1 [Example 12], the melting point is reported as 157 to 159 °C.
Work on O=C1CCC(c2ccc(C(=O)NCc3ccccc3)cc2)=NN1 [Example 7] yielded a melting point of 208 to 209 °C.
In the case of O=C1CCC(c2ccc(C(=O)Nc3cccc(C(F)(F)F)c3)cc2)=NN1 [Example 28], the melting point is reported as 229 to 230 °C.
CCC(C)OC(=O)c1ccc(C2=NNC(=O)CC2)cc1 (stereo not shown) [Example 33] gave a melting point of 120 to 122 °C.
For CC1CC(=O)NN=C1c1ccc(C(=O)Nc2cccc3ccccc23)cc1 (stereo not shown) [Example 54], the melting point was 266 to 267 °C.
In the case of Cc1ccc(NC(=O)c2ccc(C3=NNC(=O)CC3)cc2)cc1 [Example 21], the melting point is reported as greater than 250 °C.
For O=C1CCC(c2ccc(C(=O)NC3CCCCC3)cc2)=NN1 [Example 27], the melting point was 249 to 250 °C.
Work on O=C1CCC(c2ccc(C(=O)NC3CC3)cc2)=NN1 [Example 11] yielded a melting point of 248 to 250 °C.
With O=C1CCC(c2ccc(C(=O)N3CCCc4ccccc43)cc2)=NN1 [Example 25] the melting point was 215 to 216 °C.
O=C1CCC(c2ccc(C(=O)NCc3ccco3)cc2)=NN1 [Example 5] gave a melting point of 208 to 210 °C.
With O=C1CCC(c2ccc(C(=O)Nc3c(F)cccc3F)cc2)=NN1 [Example 45] the melting point was 278 to 279 °C.
In the case of O=C1CCC(c2ccc(C(=O)NCCc3cccs3)cc2)=NN1 [Example 44], the melting point is reported as 215 to 216 °C.
With COc1ccc(CCNC(=O)c2ccc(C3=NNC(=O)CC3C)cc2)cc1OC (stereo not shown) [Example 63] the melting point was 146 to 147 °C.
O=C1CCC(c2ccc(C(=O)NCCc3ccccc3)cc2)=NN1 [Example 10] showed a melting point of 223 to 226 °C.
Compound O=C1CCC(c2ccc(C(=O)Nc3ccccc3)cc2)=NN1 [Example 13] has a melting point greater than 250 °C.
C=CCOC(=O)c1ccc(C2=NNC(=O)CC2)cc1 [Example 36] showed a melting point of 131 to 133 °C.
For CC(C)OC(=O)c1ccc(C2=NNC(=O)CC2)cc1 [Example 9], the melting point was 155 to 156 °C.
In the case of O=C1CCC(c2ccc(C(=O)N3CCOCC3)cc2)=NN1 [Example 29], the melting point is reported as 202 to 203 °C.
For O=C1CCC(c2ccc(C(=O)NCc3ccccc3F)cc2)=NN1 [Example 49], the melting point was 186 to 187 °C.
O=C1CCC(c2ccc(C(=O)NCc3ccc(Cl)c(Cl)c3)cc2)=NN1 [Example 30] showed a melting point of 208 to 209 °C.
With CC(C)COC(=O)c1ccc(C2=NNC(=O)CC2)cc1 [Example 32] the melting point was 259 to 260 °C.
CC(C)CCNC(=O)c1ccc(C2=NNC(=O)CC2C)cc1 (stereo not shown) [Example 58] gave a melting point of 152 to 153 °C.
In the case of CC(C)CNC(=O)c1ccc(C2=NNC(=O)CC2C)cc1 (stereo not shown) [Example 62], the melting point is reported as 166 to 167 °C.
Work on CC1CC(=O)NN=C1c1ccc(C(=O)NC2CC2)cc1 (stereo not shown) [Example 57] yielded a melting point of 216 to 217 °C.
For O=C1CCC(c2ccc(C(=O)OC3CCCC3)cc2)=NN1 [Example 35], the melting point was 167 to 169 °C.
Work on NC(=O)c1ccccc1NC(=O)c1ccc(C2=NNC(=O)CC2)cc1 [Example 51] yielded a melting point greater than 250 °C.
For CCCOC(=O)c1ccc(C2=NNC(=O)CC2)cc1 [Example 31], the melting point was 283 to 284 °C.
CN(CCOC(=O)c1ccc(C2=NNC(=O)CC2)cc1)Cc1ccccc1 [Example 37] gave a melting point of 90 to 91 °C.
For CC(OC(=O)c1ccc(C2=NNC(=O)CC2)cc1)C1CC1 (stereo not shown) [Example 38], the melting point was 104 to 105 °C.
For O=C1CCC(c2ccc(C(=O)Nc3cccc(Cl)c3)cc2)=NN1 [Example 22], the melting point was greater than 250 °C.
For O=C1CCC(c2ccc(C(=O)Nc3ccccc3Cl)cc2)=NN1 [Example 18], the melting point was 209 to 210 °C.
For O=C1CCC(c2ccc(C(=O)NCc3cccc4ccccc34)cc2)=NN1 [Example 16], the melting point was 258 to 260 °C.
For O=C1CCC(c2ccc(C(=O)NCc3ccccn3)cc2)=NN1 [Example 17], the melting point was 228 to 230 °C.
CCNC(=O)c1ccc(C2=NNC(=O)CC2)cc1 [Example 15] showed a melting point of 228 to 230 °C.
COC(=O)c1ccc(NC(=O)c2ccc(C3=NNC(=O)CC3)cc2)o1 [Example 24] showed a melting point greater than 260 °C.
In the case of O=C1CCC(c2ccc(C(=O)NCc3cccnc3)cc2)=NN1 [Example 20], the melting point is reported as 220 to 223 °C.
CN(C(=O)c1ccc(C2=NNC(=O)CC2)cc1)c1ccccc1 [Example 42] gave a melting point of 208 to 209 °C.
With COC(=O)c1ccc(C2=NNC(=O)CC2)cc1 [Example 6] the melting point was 203 to 205 °C.
O=C1CCC(c2ccc(C(=O)OCCc3ccccc3)cc2)=NN1 [Example 39] showed a melting point of 146 to 148 °C.
COc1cccc(CCNC(=O)c2ccc(C3=NNC(=O)CC3C)cc2)c1 (stereo not shown) [Example 61] gave a melting point of 164 to 165 °C.
With CC1CC(=O)NN=C1c1ccc(C(=O)Nc2cccnc2)cc1 (stereo not shown) [Example 53] the melting point was 267 to 268 °C.
CC1CC(=O)NN=C1c1ccc(C(=O)NCC(c2ccccc2)c2ccccc2)cc1 (stereo not shown) [Example 59] gave a melting point of 186 to 187 °C.
With CC1CC(=O)NN=C1c1ccc(C(=O)N2CCCc3ccccc32)cc1 (stereo not shown) [Example 56] the melting point was greater than 260 °C.
Compound CCCCNC(=O)c1ccc(C2=NNC(=O)CC2)cc1 [Example 4] has a melting point of 217 to 218 °C.
O=C1CCC(c2ccc(C(=O)Nc3c(Cl)cccc3Cl)cc2)=NN1 [Example 8] showed a melting point greater than 250 °C.
With O=C1CCC(c2ccc(C(=O)N3CCCCC3)cc2)=NN1 [Example 19] the melting point was 182 to 184 °C.
COc1ccc(CCNC(=O)c2ccc(C3=NNC(=O)CC3C)cc2)cc1 (stereo not shown) [Example 60] gave a melting point of 245 to 246 °C.
For CNC(=O)c1ccc(C2=NNC(=O)CC2)cc1 [Example 14], the melting point was 233 to 234 °C.
